# Laboratory results: patent US20250250312A1, “BIFUNCTIONAL PEPTIDE WITH MU[…] VIRUS BINDING PROPERTIES” (priority 2022, published 2025)
# B1: p6(K)8(D)12 (peptide)
# peptide: EEQAKTFKDKFDHEAEDLFYQSSGLGKGDFR
# modifications: not checked
# Columns and labels:
# [1] = biological target: receptor binding domain (RBD) of SARS-CoV-2 (2019-nCoV) (Severe acute respiratory syndrome coronavirus 2, UniProt P0DTC2); test: biochemical; conditions: Table 4, cysteines in reduced state, MST
# [2] = biological target: receptor binding domain (RBD) of SARS-CoV-2 wildtype (2019-nCoV) (SARS-CoV-2), P0DTC2
Molecule,Kd [1] [nM],Kd [2] [nM]
"CC(C)C[C@H](NC(=O)[C@H](Cc1ccccc1)NC(=O)[C@@H](NC(=O)[C@H](CCCCN)NC(=O)[C@H](C)NC(=O)[C@H](CCC(N)=O)NC(=O)[C@H](CCC(=O)O)NC(=O)[C@@H](N)CCC(=O)O)[C@@H](C)O)C(=O)N[C@@H](CC(=O)O)C(=O)N[C@@H](CCCCN)C(=O)N[C@@H](Cc1ccccc1)C(=O)N[C@@H](CC(N)=O)C(=O)N[C@@H](Cc1c[nH]cn1)C(=O)N[C@@H](CCC(=O)O)C(=O)N[C@@H](C)C(=O)N[C@@H](CCC(=O)O)C(=O)N[C@@H](CC(=O)O)C(=O)N[C@@H](CS)C(=O)N[C@@H](Cc1ccccc1)C(=O)N[C@@H](Cc1ccc(O)cc1)C(=O)N[C@@H](CCC(N)=O)C(=O)N[C@@H](CS)C(=O)N[C@@H](CO)C(=O)O [p4C18, 22]",218,
B1,,5000
